Test system: M. tuberculosis strains resistant to 1
Format: cell-based

Compound	Cross resistance with strains resistant to 1
CC(C)(C)c1cc(NC(=O)NC2C3CC4CC(C3)CC2C4)no1 (centres unmarked) [Compound 46, 1-(2-adamantyl)-3-(5-t-butylisoxazol-3-yl)urea]	confirmed as on target against MmpL3
O=C(Nc1nnc(C2CCC2)o1)NC1C2CC3CC(C2)CC1C3 (centres unmarked) [Compound 51, 1-(2-adamantyl)-3-(5-cyclobutyl-1,3,4-oxadiazol-2-yl)urea]	confirmed as on target against MmpL3

Source: publication PMC3780361 (Bioorganic & medicinal chemistry, 2013)
